{"source": "patent US7193033B2", "about": "“Peptide having appetite stimulating activity” (Takeda Pharmaceutical Company Limited, priority 2001, dated 2007)", "key": {"GPR8 [1]": {"target": "T1, GPR8 (Homo sapiens, UniProt P48146)", "T1 construct": "expressed in transfected cells", "T1 sequence (P48146 whole entry)": "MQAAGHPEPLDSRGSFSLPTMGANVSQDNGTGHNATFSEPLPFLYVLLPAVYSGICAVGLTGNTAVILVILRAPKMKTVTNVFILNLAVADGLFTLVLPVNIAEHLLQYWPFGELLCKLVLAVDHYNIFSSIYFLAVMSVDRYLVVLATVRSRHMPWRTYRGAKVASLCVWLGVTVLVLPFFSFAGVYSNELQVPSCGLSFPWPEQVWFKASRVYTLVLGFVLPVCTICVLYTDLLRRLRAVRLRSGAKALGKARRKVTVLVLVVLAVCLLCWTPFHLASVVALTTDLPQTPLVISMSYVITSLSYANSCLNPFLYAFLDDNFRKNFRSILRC", "experiment": "Receptor binding test using [125I-Tyr10]-hGPR8L (1–23) and GPR8-expressed CHO cell membrane fraction", "settings": "inhibition of [125I-Tyr10]-hGPR8L (1–23) binding; membrane fraction 5 μg/ml", "experimental": "Receptor binding test was carried out using [^125I]-labeled hGPR8L (1–23) prepared as described in EXAMPLE 42 and the cell membrane fraction prepared from GPR8-expressed CHO cells prepared in a similar manner to the procedures described in EXAMPLE 6.\nThe cell membrane fraction prepared from human GPR8-expressed CHO cells was diluted with an assay buffer (25 mM Tris-HCl, 5 mM EDTA (ethylenediaminetetraacetic acid), 0.05% CHAPS (3-[(3-cholamidopropyl)dimethlammonio]-1-propanesulfonate), 0.1% BSA (bovine serum albumin), 0.25 mM PMSF (phenylmethylsulfonyl fluoride), 1 μg/ml pepstatin, 20 μg/ml leupeptin, pH 7.4) in various concentrations. Subsequently, 200 μl each of the dilution was dispensed in a polypropylene tst tube (Falcon 2053). […] After filtration, the residual radioactivity remained on the filter paper was measured with a γ-counter, and the specific binding (SB) was estimated by subtracting the non-specific binding from the total binding. […]\nThe receptor binding activity of the human and porcine homologue derivatives of the GPR8 ligand peptide, which synthesis was described in the specification, was determined s described in EXAMPLE 43, using the GPR8-expressed cell membrane fraction and [^125I-Tyr^10]-hGPR8L (1–23). […]"}, "GPR8 [2]": {"target": "T1, GPR8", "experiment": "GTPγ S binding promoting activity on GPR8-expressed CHO cell membrane fraction", "assay_type": "biochemical", "experimental": "The [^35S]-guanosine 5′-(γ-thio)triphosphate binding promoting activity on a GPR8-expressed CHO cell membrane fraction was assayed by the following procedures. First, preparation of the membrane fraction is described. To 1×10^8 of CHO/GPR8 cells was added 10 ml of a homogenate buffer (10 mM NaHCO3, 5 mM EDTA, 0.5 mM PMSF, 1 μg/ml pepstatin, 4 μg/ml E64, 20 μg/ml leupeptin). The mixture was homogenized by using Polytron (12,000 rpm, 1 min.). The cell homogenate was subjected to centrifugation (1,000 g, 15 mins.) to obtain the supernatant. Next, the supernatant was subjected to ultracentrifugation (Beckman type 30 rotor, 30,000 rpm, 1 hour). The resulting precipitate was used as GPR8-expressed CHO cell membrane fraction.\nThe GTPγ S binding activity was assayed as follows. The GPR8-expressed CHO cell membrane fraction was diluted with a membrane dilution buffer (50 mM Tris-hydrochloride buffer (pH 7.4), 5 mM MgCl2, 150 mM NaCl, 1 μM GDP) to prepare a cell membrane fraction solution for assay having a protein level of […]. To 200 μl of the cell membrane fraction solution for assay were added 2 μl of 51.5 nM [^35S]-guanosine 5′-(γ-thio)triphosphate (NEN Co.) and a sample fluid. […] After washing twice with 1.5 ml of a wash buffer (50 mM Tris-hydrochloride buffer (pH 7.4), 5 mM MgCl2, 1 mM EDTA, 0.1% BSA), radioactivity of the filter was measured with a liquid scintillation counter. […]"}}, "note": "Ends that are not written are not given here.", "data": [{"molecule": "CSCC[C@H](NC(=O)[C@H](CC(C)C)NC(=O)[C@H](CC(C)C)NC(=O)CNC(=O)[C@H](C)NC(=O)[C@H](C)NC(=O)[C@H](CCCNC(=N)N)NC(=O)CNC(=O)[C@@H](NC(=O)[C@@H](NC(=O)[C@H](Cc1c[nH]cn1)NC(=O)[C@H](Cc1ccc(O)cc1)NC(=O)[C@H](CCCNC(=N)N)NC(=O)[C@@H]1CCCN1C(=O)[C@H](CO)NC(=O)[C@H](C)NC(=O)[C@@H](NC(=O)[C@H](Cc1c[nH]cn1)NC(=O)[C@H](CCCCN)NC(=O)[C@H](Cc1ccc(O)cc1)NC(=O)[C@H](Cc1c[nH]c2ccccc12)NC(=O)OCC1c2ccccc2-c2ccccc21)C(C)C)[C@@H](C)O)C(C)C)C(=O)NCC(=O)N[C@@H](CC(C)C)C(=O)O", "note": "[Fmoc-hGPR8L(1–23)]", "values": [{"measurement": "IC50", "setting": "GPR8 [1]", "value": 0.2, "unit": "nM"}]}, {"molecule": "H-WYKHVASPRYHTVGRAAG [hGPR8L(1–18), Trp-Tyr-Lys-His-Val-Ala-Ser-Pro-Arg-Tyr-His-Thr-Val-Gly-Arg-Ala-Ala-Gly]", "values": [{"measurement": "EC50", "setting": "GPR8 [2]", "value": "> 10000", "unit": "nM"}]}, {"molecule": "H-WYKHVASPRYHTVGRAAGLL [hGPR8L(1–20)]", "values": [{"measurement": "IC50", "setting": "GPR8 [1]", "value": 0.2, "unit": "nM"}]}]}
